The values below are quoted from earlier work in PMC8838197, “Coumarin-Resveratrol-Inspired Hybrids as Monoamine Oxidase B Inhibitors: 3-Phenylcoumarin versus trans-6-Styrylcoumarin” (Molecules, 2022).

For the data set, the system named is MAO-B. On the set-up: pIC50 MAO-B: unit not given here. To be noted: cited from earlier work; for pIC50 MAO-B: Table S8.

Where only a bound is given, the exact number is not on record here.

Consider `Cc1ccc2occ(C(=O)Nc3cccc(Cl)c3)c(=O)c2c1` [Compound 124], for which the “pIC50 MAO-B” value is reported as 8.377.

`Cc1ccc(NC(=O)c2cc3cc(C)ccc3oc2=O)cc1` [Compound 100]: the “pIC50 MAO-B” value was 7.857.

For the compound `COc1ccc2occ(C(=O)Nc3ccccc3)c(=O)c2c1` [Compound 129], the “pIC50 MAO-B” value was 7.379.

Take `COc1ccc2oc(=O)c(C(=O)Nc3cccc(O)c3)cc2c1` [Compound 119]: the “pIC50 MAO-B” value is listed as 6.641.

Turning to `COc1cccc2cc(-c3ccc(Br)cc3)c(=O)oc12` [Compound 35], the “pIC50 MAO-B” value is reported as 5.48.

For `Cc1cc(=O)oc2cc(NC(=O)c3cccs3)ccc12` [Compound 162], the “pIC50 MAO-B” value is reported as 5.799.

For `COc1ccc2occ(C(=O)Nc3ccc(Cl)cc3)c(=O)c2c1` [Compound 134], the “pIC50 MAO-B” value is recorded as 7.987. Further, where the note is “data set compounds”, the “MAO-B pIC50” value is above 6.5.

For `COc1cc(OC)cc(-c2cc3cc(C)ccc3oc2=O)c1` [Compound 3], the “pIC50 MAO-B” value is given as 8.047.

As to `COc1cc(-c2cc3c(ccc4ccccc43)oc2=O)cc(OC)c1OC` [Compound 79], the “pIC50 MAO-B” value was 5.851.

With `Cc1ccc(C(=O)Nc2ccc3c(C)cc(=O)oc3c2)cc1` [Compound 160], the “pIC50 MAO-B” value was 6.046.

For `COc1ccc2occ(C(=O)Nc3ccc(O)cc3)c(=O)c2c1` [Compound 135], the “pIC50 MAO-B” value is recorded as 6.171. In addition, under “data set compounds”, the “MAO-B pIC50” value was below 6.5.

Take `COc1ccc2oc(=O)c(C(=O)Nc3ccc(C)cc3)cc2c1` [Compound 120]: the “pIC50 MAO-B” value is given as 7.712.

With `Cc1ccc(C(=O)Nc2cc3ccccc3oc2=O)cc1` [Compound 42], the “pIC50 MAO-B” value is 5.099.

`COc1ccc(-c2cc3cc(C)ccc3oc2=O)cc1` [Compound 2]: the “pIC50 MAO-B” value is 7.884.

On to `O=C(Nc1c(O)c2ccccc2oc1=O)c1cccs1` [Compound 95], for which the “pIC50 MAO-B” value is listed as 4.81.

`COc1ccc(-c2cc3c(ccc4ccccc43)oc2=O)cc1OC` [Compound 78]: the “pIC50 MAO-B” value is listed as 7.312. Besides, the “MAO-B pIC50” value (data set compounds) is given as above 6.5.

Take `COc1ccc2oc(=O)c(-c3cccc(C)c3)cc2c1` [Compound 12]: the “pIC50 MAO-B” value is listed as 7.768. Further, under “data set compounds”, the “MAO-B pIC50” value is given as above 6.5.

As for `CCC#CCNc1cc2ccccc2oc1=O` [Compound 150], the “pIC50 MAO-B” value is reported as 5.963.

On to `COc1cccc(-c2cc3cc(C)ccc3oc2=O)c1` [Compound 5, 3-(3′-methoxyphenyl)-6-methylcoumarin], for which the “pIC50 MAO-B” value was 9.096. For the setting “data set compounds”, the “activity against MAO-B isoform” value is “picomolar range”.

`Cc1ccc2oc(=O)c(-c3ccc(Br)cc3)cc2c1` [Compound 64, 3-(4′-bromophenyl)-6-methylcoumarin]: the “pIC50 MAO-B” value is given as 9.412. Also, the “MAO-B pIC50” value (data set compounds) was above 6.5.

For the compound `C#CCNc1cc2ccccc2oc1=O` [Compound 148], the “pIC50 MAO-B” value is reported as 6.022.

Consider `CCC#CCNc1ccc2c(C(F)(F)F)cc(=O)oc2c1` [Compound 152], for which the “pIC50 MAO-B” value is given as 5.094.

In the case of `COc1ccc2occ(C(=O)Nc3ccc(C)cc3)c(=O)c2c1` [Compound 133], the “pIC50 MAO-B” value is recorded as 6.676.

For `COc1ccc(C(=O)Nc2cc3ccccc3oc2=O)cc1OC` [Compound 46], the “pIC50 MAO-B” value was 4.234.

As to `COc1ccc(-c2c(O)c3cc(C)ccc3oc2=O)cc1Cl` [Compound 29], the “pIC50 MAO-B” value was 4.37.

Regarding `CC(=O)COc1ccc2oc(=O)c(-c3ccc(C)cc3)cc2c1` [Compound 15], the “pIC50 MAO-B” value is listed as 5.258.

Regarding `COc1ccccc1-c1cc2c(ccc3ccccc32)oc1=O` [Compound 77], the “pIC50 MAO-B” value is listed as 7.385.

For `Cc1ccc2oc(=O)c(C(=O)Nc3cccc(Cl)c3)cc2c1` [Compound 112], the “pIC50 MAO-B” value is on record as 8.295.

On to `CC(=O)COc1cccc(-c2cc3cc(C)ccc3oc2=O)c1` [Compound 25], for which the “pIC50 MAO-B” value is reported as 6.745.

With `Cc1cccc(NC(=O)c2coc3ccc(C)cc3c2=O)c1` [Compound 123], the “pIC50 MAO-B” value is 7.767.

For the compound `Cc1ccc2oc(=O)c(C(=O)Nc3cccc(O)c3)cc2c1` [Compound 113], the “pIC50 MAO-B” value was 7.343.

Take `Cc1ccc2oc(=O)c(C(=O)Nc3ccccc3C)cc2c1` [Compound 98]: the “pIC50 MAO-B” value is 7.928.

Regarding `COc1cc(OC)cc(-c2cc3cc(C)cc(Br)c3oc2=O)c1` [Compound 10], the “pIC50 MAO-B” value is 8.148. Also, the “MAO-B pIC50” value (data set compounds) is given as above 6.5.

In the case of `COc1ccc(-c2c(O)c3cc(C)ccc3oc2=O)cc1` [Compound 27], the “pIC50 MAO-B” value was 4.494.

Take `COc1cccc2cc(-c3cccc(C)c3)c(=O)oc12` [Compound 141]: the “pIC50 MAO-B” value is reported as 7.092. Further, the “MAO-B pIC50” value (data set compounds) was above 6.5.

Take `Cc1cccc2cc(-c3ccc(Br)cc3)c(=O)oc12` [Compound 39]: the “pIC50 MAO-B” value is recorded as 7.701. Moreover, where the note is “data set compounds”, the “MAO-B pIC50” value was above 6.5.

For the compound `Cc1cccc(-c2cc3c(ccc4ccccc43)oc2=O)c1` [Compound 80], the “pIC50 MAO-B” value is reported as 5.62.

Turning to `Cc1ccc2occ(C(=O)Nc3ccc(Cl)cc3)c(=O)c2c1` [Compound 127], the “pIC50 MAO-B” value was 7.343. Also, the “MAO-B pIC50” value (data set compounds) is given as above 6.5.

In the case of `O=c1oc2ccc(O)cc2cc1-c1cccc(Br)c1` [Compound 69], the “pIC50 MAO-B” value was 8.097. Moreover, the “MAO-B pIC50” value (data set compounds) is recorded as above 6.5.

As for `O=c1oc2ccc(OC3CCCC3)cc2cc1-c1ccc(Br)cc1` [Compound 70], the “pIC50 MAO-B” value was 5.154.

In the case of `O=C(Nc1cc2ccccc2oc1=O)c1ccc(Cl)cc1` [Compound 45], the “pIC50 MAO-B” value is reported as 5.71.

On to `COc1ccc2oc(=O)c(C(=O)Nc3cccc(C)c3)cc2c1` [Compound 117], for which the “pIC50 MAO-B” value was 7.326.

In the case of `O=C(O)COc1ccc2oc(=O)c(-c3cccc(Br)c3)cc2c1` [Compound 74], the “pIC50 MAO-B” value was 8.62. In addition, the “MAO-B pIC50” value (data set compounds) is on record as above 6.5.

With `O=C(Nc1c(O)c2ccccc2oc1=O)C1CCCCC1` [Compound 97], the “pIC50 MAO-B” value was 4.648.

Take `Cc1cccc(NC(=O)c2cc3cc(C)ccc3oc2=O)c1` [Compound 111]: the “pIC50 MAO-B” value is listed as 8.124.

With `Cc1ccc(NC(=O)c2coc3ccc(C)cc3c2=O)cc1` [Compound 126], the “pIC50 MAO-B” value is on record as 6.819.

Take `COc1ccc(-c2cc3cc(C)ccc3oc2=O)cc1Br` [Compound 21]: the “pIC50 MAO-B” value is on record as 8.488.

Consider `COc1ccc2occ(C(=O)Nc3cccc(Cl)c3)c(=O)c2c1` [Compound 131], for which the “pIC50 MAO-B” value is on record as 8.405.

In the case of `O=c1oc2ccc3ccccc3c2cc1-c1ccccc1O` [Compound 83], the “pIC50 MAO-B” value is reported as 5.496.

Regarding `Cc1ccc2oc(=O)c(-c3ccc(N)cc3)cc2c1` [Compound 91], the “pIC50 MAO-B” value is listed as 8.387. Besides, under “data set compounds”, the “MAO-B pIC50” value was above 6.5.

As to `COc1ccc2oc(=O)c(C(=O)Nc3ccccc3)cc2c1` [Compound 116], the “pIC50 MAO-B” value was 8.225.

For the compound `Cc1ccc2oc(=O)c(C(=O)Nc3cccc(Br)c3)cc2c1` [Compound 105], the “pIC50 MAO-B” value is listed as 8.332.

For the compound `COc1cc(OC)c(Br)c(-c2cc3cc(C)ccc3oc2=O)c1` [Compound 22], the “pIC50 MAO-B” value is on record as 4.267.

As for `Cc1ccc2oc(=O)c(C(=O)Nc3ccc(O)cc3)cc2c1` [Compound 115], the “pIC50 MAO-B” value is reported as 6.206. In addition, the “MAO-B pIC50” value (data set compounds) was below 6.5.

For `COc1cc(C(=O)Nc2cc3ccccc3oc2=O)cc(OC)c1OC` [Compound 47], the “pIC50 MAO-B” value is listed as 4.139.
